Measurements reported in patent publication US20240285624A1, “ERK1/2 OR SHP2 INHIBITORS AND FLT3 INHIBITORS COMBINATION THERAPY” (Erasca, Inc., priority 2021, published 2024).

What was measured:
[1] = test system: MOLM-13 subcutaneous CDX model; assay: In vivo tumor growth, FLT3-ITD mutated AML subcutaneous CDX model MOLM-13; design: species or system Balb/c nude mice; details: compound 2 15 or 30 mg/kg PO QD; groups terminated on treatment day 12
Description: The vehicle/control article, 100 mM acetic acid in deionized water, with pH adjustment to 4.8-5.0, was prepared and stored under ambient conditions throughout the 42-day administration in mice.
The test article, compound 2, was freshly prepared in vehicle of 100 mM acetic buffer weekly and stored under ambient conditions. The combination agent gilteritinib was prepared weekly in vehicle of 0.5% Methyl Cellulose & 0.1% Tween 80 Solution weekly and stored under ambient conditions.
Female Balb/c nude mice were between 6-8 weeks of age at the time of implantation. Mice were hosted in a special pathogen-free (SPF) environment of the vivarium facility and acclimated to their new environment for at least 3 days prior to initiation of any experiments according to IACUC protocol.
MOLM-13 was AML cell line that harbored a FLT3-ITD mutation. MOLM-13 cells were cultured in medium containing RPMI1640 plus 10% Fetal Bovine Serum (FBS) and 1% Antibiotic-Antimycotic (AA), at 37° C. in an atmosphere of 5% CO2 in air. The medium was renewed every 2 to 3 days and tumor cells were routinely sub-cultured at a confluence of 80-90% by trypsin-EDTA. Cells growing in an exponential growth phase were harvested and counted for inoculation. […] Animal health and tumor growth were monitored daily. Tumor volume was measured twice a week by caliper when tumors were palpable and measurable. […]

[2] = test system: ERK1/2 phosphorylation in MOLM-14 cells; assay: Western blot of phosphorylated ERK1/2; assay type: cell-based; details: compound 2 alone, 4 hours, relative to DMSO treated control cells
Description: (§1) Western blotting: Cells were lysed on ice for 10 minutes with Thermo Fisher RIPA lysis buffer with protease and phosphatase inhibitors. The cells were centrifuged at 4° for 10 minutes with a microcentrifuge. The supernatant was transferred to pre-chilled microcentrifuge tube and protein concentration of the lysate was measured using BCA method. Cell lysate supematants of equal-amount of proteins were used for immunoblotting.
(§2) FIG. 3A is a Western blot showing compound 2 and gilteritinib combination induced downregulation of ERK1/2 phosphorylation in MOLM-14 cells. FIG. 3B is a bar plot quantifying the results of […]. The cell lines, MOLM14 and MV-4-11 were split onto a 6 well plate and treated with compound 2 and gilteritinib alone, and in combination as indicated (FIGS. 3A/B and 4A/B). After 4 hours treatment, cells were lysed and immunoblotted for phosphorylated ERK1/2. […] The phosphorylated ERK1/2 bands were quantified by using Bio-Rad Image Lab software and normalized by total ERK.

[3] = test system: ERK1/2 phosphorylation in MV-4-11 cells; assay: Western blot of phosphorylated ERK1/2; assay type: cell-based; details: compound 2 alone, 4 hours, relative to DMSO treated control cells
Description: as §1, §2
FIG. 4A is a Western blot showing compound 2 and gilteritinib combination induced downregulation of ERK1/2 phosphorylation in MV-4-11 cells. FIG. 4B is a bar plot quantifying the results of […]. […] The phosphorylated ERK1/2 bands were quantified by using Bio-Rad Image Lab software and normalized by total ERK.

## COCOC[C@H]1C[C@H]2COc3c(Sc4cnc(N5CCC6(CC5)CO[C@@H](C)[C@H]6N)c(CO)n4)ccnc3N2C1 [compound 2, (3-((3S,4S)-4-amino-3-methyl-2-oxa-8-azaspiro[4.5]decan-8-yl)-6-(((6aS,8S)-8-((methoxymethoxy)methyl)-6a,7,8,9-tetrahydro-6H-pyrido[3,2-b]pyrrolo[1,2-d][1,4]oxazin-4-yl)thio)pyrazin-2-yl)methanol]
[1]
  tumor growth under monotherapy (group termination): rapid tumor growth
[2]
  inhibition of ERK1/2 phosphorylation (immunoblot): about 30%
[3]
  inhibition of ERK1/2 phosphorylation (immunoblot): about 50%
